The NIST ThermoML archive (doi:10.1021/acs.jced.8b00182)

What was measured:
[1] = xn = mol fraction of the nth substance listed; conditions: 298.15 K, 100 kPa, Liquid, Vibrating tube method
[2] = Liquid; for vapor or sublimation pressure / Normal boiling temperature: Ebulliometric method (Recirculating still); for mass density: 298.15 K, 100 kPa, Vibrating tube method
[3] = refractive index (Na D-line) (dimensionless); conditions: 298.15 K; 101.33 kPa; Liquid; Standard Abbe refractometry

CCCCO [butan-1-ol] + CCCCOC(C)=O
Conditions	mass density [kg/m3]
[1], x2 = 0	805.9

CO [methanol]
Conditions	vapor or sublimation pressure [kPa]
[2], 348.27 K	150

Conditions	Normal boiling temperature [°C]	refractive index
[2]	64.70	–
[3]	–	1.32676

CCCCO [butan-1-ol]
Conditions	mass density [kg/m3]	refractive index
[2]	805.9	–
[3]	–	1.39732

Conditions	vapor or sublimation pressure [kPa]
[2], 402.59 K	150

CCCCOC(C)=O [butyl ethanoate] + CCCCO
[1]
Conditions	mass density [kg/m3]
x1 = 0.0758	812.9
x1 = 0.1018	815.2
x1 = 0.1458	819
x1 = 0.2387	826.7
x1 = 0.3151	832.7
x1 = 0.3468	835.1
x1 = 0.3845	837.9
x1 = 0.3983	838.9
x1 = 0.4316	841.3
x1 = 0.5002	846.1
x1 = 0.5883	852
x1 = 0.6709	857.3
x1 = 0.7064	859.5
x1 = 0.7919	864.7
x1 = 0.8673	869.1
x1 = 0.9259	872.4
x1 = 0.9503	873.8
x1 = 1	876.5

CCCO [propan-1-ol]
Conditions	Normal boiling temperature [°C]	mass density [kg/m3]	refractive index
[2]	97.20	799.6	–
[3]	–	–	1.38315

Conditions	vapor or sublimation pressure [kPa]
[2], 381.24 K	150

CCCCOC(C)=O [butyl ethanoate] + CCO
[1]
Conditions	mass density [kg/m3]
x1 = 0.0443	793.7
x1 = 0.1461	810.2
x1 = 0.2003	817.6
x1 = 0.2554	824.3
x1 = 0.2954	828.8
x1 = 0.3487	834.3
x1 = 0.4451	843
x1 = 0.4968	847.2
x1 = 0.5987	854.6
x1 = 0.6505	858
x1 = 0.7492	863.9
x1 = 0.8035	866.9
x1 = 0.8567	869.7
x1 = 0.8978	871.7
x1 = 0.9429	873.9
x1 = 1	876.5

CCO [ethanol]
Conditions	Normal boiling temperature [°C]	mass density [kg/m3]	refractive index
[2]	78.30	785.2	–
[3]	–	–	1.35933

Conditions	vapor or sublimation pressure [kPa]
[2], 361.98 K	150

CCCO [propan-1-ol] + CCCCOC(C)=O
Conditions	mass density [kg/m3]
[1], x2 = 0	799.6

CCCCOC(C)=O [butyl ethanoate] + CCCO
[1]
Conditions	mass density [kg/m3]
x1 = 0.0433	805.1
x1 = 0.1028	812.1
x1 = 0.2026	822.6
x1 = 0.2517	827.3
x1 = 0.2927	831
x1 = 0.35	835.9
x1 = 0.3986	839.8
x1 = 0.4482	843.6
x1 = 0.554	851.1
x1 = 0.5962	853.9
x1 = 0.6371	856.5
x1 = 0.7071	860.8
x1 = 0.7623	864
x1 = 0.8001	866.1
x1 = 0.8413	868.4
x1 = 0.8942	871.2
x1 = 0.9401	873.5
x1 = 1	876.5

CCCCOC(C)=O [butyl ethanoate]
Conditions	Normal boiling temperature [°C]	mass density [kg/m3]	refractive index
[2]	125.83	876.5	–
[3]	–	–	1.39201

Conditions	vapor or sublimation pressure [kPa]
[2], 413.3 K	150

CCO [ethanol] + CCCCOC(C)=O
Conditions	mass density [kg/m3]
[1], x2 = 0	785.2
